Drawing on US11905274B2, “Receptor inhibitors, pharmaceutical compositions comprising the same and use thereof” (BEIJING TIDE PHARMACEUTICAL CO., LTD., priority 2018, dated 2024), this text covers IC50 for 32 compounds.

The structures appear in SMILES notation. pIC50: −log10 of the molar value.

Broadly, the pIC50 is the negative decadic logarithm of the IC50, by convention in mol/L. Low readings indicate a high IC50, high ones a low IC50.

The test deals with AT2 Receptor (AT2R) (Homo sapiens (Human), UniProt P50052). As to the kind of experiment: Inhibitory activity on AT2 receptor (Tag-lite HTRF, Tb-labeled AT2R cells, angiotensin receptor red agonist). The test is classed as binding. The following applies: 1 h at room temperature. In general terms: In TR-FRET formats the signal depends on donor and acceptor labels being close together.
AT2 Receptor (AT2R), sequence (P50052 whole entry): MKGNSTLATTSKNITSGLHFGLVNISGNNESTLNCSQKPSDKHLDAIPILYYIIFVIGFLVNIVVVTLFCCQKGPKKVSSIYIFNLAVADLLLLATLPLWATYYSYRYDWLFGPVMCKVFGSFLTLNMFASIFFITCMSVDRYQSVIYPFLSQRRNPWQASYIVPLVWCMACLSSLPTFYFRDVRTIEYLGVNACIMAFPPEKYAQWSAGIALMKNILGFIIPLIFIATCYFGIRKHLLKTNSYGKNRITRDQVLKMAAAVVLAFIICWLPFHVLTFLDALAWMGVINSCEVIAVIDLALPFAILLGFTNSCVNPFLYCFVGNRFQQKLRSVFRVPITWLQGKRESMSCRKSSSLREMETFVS
Compound `O=C(O)[C@@H]1CN(C(=O)C(c2ccccc2)c2ccccc2)CCN1C(=O)N1c2ccccc2Sc2ccccc21` [Compound C21, (S)-4-(2,2-diphenylacetyl)-1-(10H-phenothiazine-10-carbonyl)piperazine-2-carboxylic acid] had a pIC50 of 6.72.

`O=C(N1CCN(C(=O)N2c3ccccc3C=Cc3ccccc32)[C@H](c2nnn[nH]2)C1)N(c1ccccc1)c1ccccc1` [Compound C31, (S)-4-(5H-dibenzo[b,f]azepine-5-carbonyl)-N,N-diphenyl-3-(1H-tetrazol-5-yl)piperazine-1-carboxamide] gave a pIC50 of 6.66.

The compound `O=C1Nc2ccccc2N(C(=O)N2CCN(C(=O)N(c3ccccc3)c3ccccc3)C[C@H]2C(=O)O)c2ccccc21` [Compound C53, (S)-4-(diphenylcarbamoyl)-1-(11-oxo-10,11-dihydro-5H-dibenzo[b,e][1,4]diazepine-5-carbonyl)piperazine-2-carboxylic acid] gave a pIC50 of 5.87.

`Cc1ccccc1N(C(=O)N1CCN(C(=O)N2c3ccccc3C=Cc3ccccc32)[C@H](C(=O)O)C1)c1ccccc1` [Compound C59, (S)-1-(5H-dibenzo[b,f]azepine-5-carbonyl)-4-(phenyl(orthomethylphenyl)carbamoyl) piperazine-2-carb oxylic acid] showed a pIC50 of 7.17.

Compound `O=C(O)[C@@H]1CN(C(=O)N2c3ccccc3CCc3ccccc32)CCN1C(=O)N1c2ccccc2CCc2ccccc21` [Compound C76, (S)-1,4-bis(10,11-dihydro-5H-dibenzo [b,f]azepine-5-carbonyl)piperazine-2-carboxylic acid] showed a negative-log IC50 (pIC50) of 6.81.

Take `CCN(Cc1ccccc1)C(=O)N1CCN(C(=O)N2c3ccccc3CC(=O)c3ccccc32)[C@H](C(=O)O)C1` [Compound C78, (S)-4-(benzyl(ethyl)carbamoyl)-1-(10-oxo-10,11-dihydro-5H-dibenzo [b,f]azepine-5-carbonyl) piperazine-2-carboxylic acid]: the pIC50 is 7.05.

`CCN(Cc1ccsc1)C(=O)N1CCN(C(=O)N2c3ccccc3CC(=O)c3ccccc32)[C@H](C(=O)O)C1` [Compound C79, (S)-4-(ethyl (thiophene-3-ylmethyl)carbamoyl)-1-(10-oxo-10,ll-dihydro-5H-dibenzo[b,f]azepine-5-carbonyl) piperazine-2-carboxylic acid] showed a pIC50 of 6.34.

Take `O=C(O)[C@@H]1CN(C(=O)C2(c3ccccc3)CCCC2)CCN1C(=O)N(c1ccccc1)c1ccccc1` [Compound C83, (S)-1-(diphenylcarbamoyl)-4-(1-phenylcyclopentanecarbonyl) piperazine-2-carboxylic acid]: the pIC50 is 8.20.

As to `O=C(O)[C@@H]1CN(C(=O)N(c2ccccc2)c2ccccc2)CCN1C(=O)C1(O)c2ccccc2-c2ccccc21` [Compound C85, (S)-4-(diphenylcarbamoyl)-1-(9-hydroxy-9H-fluorene-9-carbonyl)piperazine-2-carboxylic acid], the pIC50 was 6.34.

In the case of `O=C(O)[C@@H]1CN(C(=O)OCc2ccccc2)CCN1C(=O)C1(c2ccccc2)CCCCC1` [Compound C86, (S)-4-((benzyloxy)carbonyl)-1-(1-phenylcyclohexanecarbonyl) piperazine-2-carboxylic acid], the pIC50 was 6.30.

The compound `CN(Cc1ccccc1)C(=O)N1CCN(C(=O)C2(c3ccccc3)CCCCC2)[C@H](C(=O)O)C1` [Compound C87, (S)-4-(benzyl(methyl)carbamoyl)-1-(1-phenylcyclohexanecarbonyl) piperazine-2-carboxylic acid] had a pIC50 of 6.41.

`CN(Cc1ccccc1)C(=O)N1CCN(C(=O)N2c3ccccc3C=Cc3ccccc32)[C@H](C(=O)O)C1` [Compound C88, (S)-4-(benzyl(methyl)carbamoyl)-1-(5H-dibenzo[b,f]azepine-5-carbonyl) piperazine-2-carboxylic acid] gave a pIC50 of 6.41.

For the compound `O=C1Cc2ccccc2N(C(=O)N2CCN(C(=O)N(c3ccccc3F)c3ccccc3F)C[C@H]2C(=O)O)c2ccccc21` [Compound C91, (S)-4-(bis(2-fluophenyl)carbamoyl)-1-(10-oxo-10,11-dihydro-5H-dibenzo [b,f]azepine-5-carbonyl)piperazine-2-carboxylic acid], the pIC50 was 7.51.

As for `CN1C(=O)c2ccccc2N(C(=O)N2CCN(C(=O)N(c3ccccc3)c3ccccc3)C[C@H]2C(=O)O)c2ccccc21` [Compound C96], the pIC50 was 7.88.

In turn, `COc1ccccc1N(C(=O)N1CCN(C(=O)N2c3ccccc3C(=O)N(C)c3ccccc32)[C@H](C(=O)O)C1)c1ccccc1OC` [Compound C97, (S)-4-(bis(2-methoxyphenyl)carbamoyl)-1-(10-methyl-11-oxo-10,11-dihydro-5H-dibenzo [b,e][1,4]diazepine-5-carbonyl)piperazine-2-carboxylic acid] gave a pIC50 of 6.86.

`CCN1C(=O)c2ccccc2N(C(=O)N2CCN(C(=O)N(c3ccccc3)c3ccccc3)C[C@H]2C(=O)O)c2ccccc21` [Compound C98, (S)-4-(diphenylcarbamoyl)-1-(10-ethyl-11-oxo-10,11-dihydro-5H-dibenzo[b,e][1,4]diazepine-5-carbonyl) piperazine-2-carboxylic acid]: the pIC50 was 8.09.

`CN(C)S(=O)(=O)NC(=O)[C@@H]1CN(C(=O)N(c2ccccc2)c2ccccc2)CCN1C(=O)N1c2ccccc2CC(=O)c2ccccc21` [Compound C103]: the pIC50 was 6.48.

With `O=C1Cc2ccccc2N(C(=O)N2CCN(C(=O)N(c3ccccc3)c3ccccc3)C[C@H]2c2nn[nH]n2)c2ccccc21` [Compound C104, (S)-4-(10-oxo-10,11-dihydro-5H-dibenzo[b,f]azepine-5-carbonyl)-N, N-diphenyl-3-(1H-tetrazol-5-yl)piperazine-1-carboxamide], the pIC50 is 6.53.

In turn, `O=C1Cc2ccccc2N(C(=O)N2CCN(C(=O)N(c3ccc(F)cc3)c3ccc(F)cc3)C[C@H]2C(=O)O)c2ccccc21` [Compound C105, (S)-4-(bis(4-fluorinephenyl)carbamoyl)-1-(10-oxo-10,11-dihydro-5H-dibenzo [b,f]azepine-5-carbonyl)piperazine-2-carboxylic acid] had a pIC50 of 6.79.

Consider `CC(C(=O)N1CCN(C(=O)N2c3ccccc3CC(=O)c3ccccc32)[C@H](C(=O)O)C1)(c1ccccc1)c1ccccc1` [Compound C106, (S)-4-(2,2-diphenylpropionyl)-1-(10-oxo-10,11-dihydro-5H-dibenzo [b,f]azepine-5-carbonyl) piperazine-2-carboxylic acid], for which the pIC50 is 6.55.

For the compound `COc1cccc(N(C(=O)N2CCN(C(=O)N3c4ccccc4CC(=O)c4ccccc43)[C@H](C(=O)O)C2)c2cccc(OC)c2)c1` [Compound C108, (S)-4-(bis(3-methoxylphenyl)carbamoyl)-1-(10-oxo-10,11-dihydro-5H-dibenzo [b,f]azepine-5-carbonyl)piperazine-2-carboxylic acid], the pIC50 was 7.29.

Consider `COc1ccccc1N(C(=O)N1CCN(C(=O)N2c3ccccc3CC(=O)c3ccccc32)[C@H](C(=O)NS(=O)(=O)N(C)C)C1)c1ccccc1OC` [Compound C111, (S)-N^3-(N,N-dimethylsulphamoyl)-N^1,N^1-bis (2-methoxyphenyl)-4-(10-oxo-10,11-dihydro-5H-dibenzo[b,f]azepine-5-carbonyl) piperazine-1,3-dicarboxamide], for which the negative-log IC50 (pIC50) is 6.64.

`COc1ccccc1N(C(=O)N1CCN(C(=O)N2c3ccccc3C=Cc3ccccc32)[C@H](C(=O)O)C1)c1ccccc1` [Compound C113, (S)-1-(5H-dibenzo[b,f]azepine-5-carbonyl)-4-((2-methoxylphenyl) (phenyl)carbamoyl) piperazine-2-carboxylic acid] showed a pIC50 of 8.13.

Compound `O=C1Cc2ccccc2N(C(=O)N2CCN(C(=O)N(c3ccccc3)c3ccccc3)C[C@H]2C(=O)NO)c2ccccc21` [Compound C123] showed a pIC50 of 6.30.

In turn, `O=C(O)[C@@H]1CN(C(=O)N2CCC[C@@H]2c2ccccc2)CCN1C(=O)N(c1ccccc1)c1ccccc1` [Compound C128, (S)-1-(diphenylcarbamoyl)-4-((R)-2-phenylpyrrolidine-1-carbonyl) piperazine-2-carboxylic acid] showed a pIC50 of 7.90.

`O=C(O)[C@@H]1CN(C(=O)N(c2ccccc2)c2ccccc2)CCN1C(=O)N1CCC[C@H]1c1ccccc1` [Compound C129, (S)-4-(diphenylcarbamoyl)-1-((S)-2-phenylpyrrolidinyl-1-carbonyl)piperazine-2-carboxylic acid] had a pIC50 of 7.01.

`CN(Cc1ccccc1)C(=O)N1CCN(C(=O)C(C)(c2ccccc2)c2ccccc2)[C@H](C(=O)O)C1` [Compound C133, (S)-4-(benzyl(methyl)carbamoyl)-1-(2,2-diphenylpropionyl) piperazine-2-carboxylic acid] had a pIC50 of 7.61.

For `CCN(Cc1ccc(C)s1)C(=O)N1CCN(C(=O)N(c2ccccc2)c2ccccc2)[C@H](C(=O)O)C1` [Compound C134, (S)-1-(diphenylcarbamoyl)-4-(ethyl((5-methylthiophen-2-yl)methyl)carbamoyl) piperazine-2-carboxylic acid], the pIC50 was 7.73.

Regarding `Cc1ccc(CN(C)C(=O)N2CCN(C(=O)N(c3ccccc3)c3ccccc3)[C@H](C(=O)O)C2)s1` [Compound C135, (S)-1-(diphenylcarbamoyl)-4-(methyl((5-methylthiophen-2-yl)methyl)carbamoyl)piperazine-2-carboxylic acid], the pIC50 was 7.55.

For `CCN(Cc1csc(C)c1)C(=O)N1CCN(C(=O)N(c2ccccc2)c2ccccc2)[C@H](C(=O)O)C1` [Compound C137, (S)-1-(diphenylcarbamoyl)-4-(ethyl((5-methylthiophen-3-yl)methyl)carbamoyl) piperazine-2-carboxylic acid], the pIC50 was 7.44.

The compound `O=C(O)[C@@H]1CN(C(=O)OCc2cccs2)CCN1C(=O)N(c1ccccc1)c1ccccc1` [Compound C140, (S)-1-(diphenylcarbamoyl)-4-((thiophene-2-ylmethoxy)carbonyl) piperazine-2-carboxylic acid] gave a pIC50 of 6.48.

Consider `Cc1cc(CN(C)C(=O)N2CCN(C(=O)N(c3ccccc3)c3ccccc3)[C@H](C(=O)O)C2)sc1C` [Compound C144, (S)-4-(((4,5-dimethylthiophen-2-yl)methyl)(methyl)carbamoyl)-1-(diphenylcarbamoyl) piperazine-2-carboxylic acid], for which the negative-log IC50 (pIC50) is 7.01.
